Laboratory results reported in patent publication US20230399342A1 (Incyte Corporation, priority 2022, published 2023).

What was measured:
DGKζ = DGKζ (Homo sapiens (Human), UniProt Q13574); assay: In vitro DGKζ inhibition assay (ADP-Glo); assay type: biochemical; details: His-tagged human recombinant enzyme, 0.4 nM DGK, 30 μM ATP, 20 μM DLG, 90 minute incubation
Procedure, shortened: (§1)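 His-tagged human DGKα (0.1 nM, 50 μM ATP) or DGKζ (0.4 nM, 30 μM ATP), each with 20 μM DLG, in Tris pH 7.5 buffer with CHAPS, Mg2+, Ca2+.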

DGKα = DGKα (Homo sapiens (Human), UniProt P23743); assay: In vitro DGKα inhibition assay (ADP-Glo); assay type: biochemical; details: His-tagged human recombinant enzyme, 0.1 nM DGKα, 50 μM ATP, 20 μM DLG, 90 minute incubation
DGKα, sequence (P23743 whole entry): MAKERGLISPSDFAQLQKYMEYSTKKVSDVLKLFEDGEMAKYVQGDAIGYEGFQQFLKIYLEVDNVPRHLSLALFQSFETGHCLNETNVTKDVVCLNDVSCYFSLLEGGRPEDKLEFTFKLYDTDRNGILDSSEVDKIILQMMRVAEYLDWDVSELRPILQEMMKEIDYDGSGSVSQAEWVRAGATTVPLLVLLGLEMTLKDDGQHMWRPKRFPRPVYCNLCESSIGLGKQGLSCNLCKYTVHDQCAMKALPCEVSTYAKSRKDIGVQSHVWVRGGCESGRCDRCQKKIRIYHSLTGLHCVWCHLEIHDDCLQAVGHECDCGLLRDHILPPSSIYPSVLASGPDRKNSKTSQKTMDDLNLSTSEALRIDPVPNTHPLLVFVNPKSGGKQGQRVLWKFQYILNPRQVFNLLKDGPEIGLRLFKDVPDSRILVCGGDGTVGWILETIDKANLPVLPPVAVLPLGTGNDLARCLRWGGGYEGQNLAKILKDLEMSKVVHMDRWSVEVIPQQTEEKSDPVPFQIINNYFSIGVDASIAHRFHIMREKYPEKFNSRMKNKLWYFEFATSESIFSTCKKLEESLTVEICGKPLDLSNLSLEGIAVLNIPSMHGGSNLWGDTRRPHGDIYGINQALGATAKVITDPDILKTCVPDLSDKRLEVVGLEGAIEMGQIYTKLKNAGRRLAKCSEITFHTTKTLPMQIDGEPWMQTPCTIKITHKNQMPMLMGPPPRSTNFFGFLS
Procedure, shortened: as §1

DGKζ, sequence (Q13574 whole entry): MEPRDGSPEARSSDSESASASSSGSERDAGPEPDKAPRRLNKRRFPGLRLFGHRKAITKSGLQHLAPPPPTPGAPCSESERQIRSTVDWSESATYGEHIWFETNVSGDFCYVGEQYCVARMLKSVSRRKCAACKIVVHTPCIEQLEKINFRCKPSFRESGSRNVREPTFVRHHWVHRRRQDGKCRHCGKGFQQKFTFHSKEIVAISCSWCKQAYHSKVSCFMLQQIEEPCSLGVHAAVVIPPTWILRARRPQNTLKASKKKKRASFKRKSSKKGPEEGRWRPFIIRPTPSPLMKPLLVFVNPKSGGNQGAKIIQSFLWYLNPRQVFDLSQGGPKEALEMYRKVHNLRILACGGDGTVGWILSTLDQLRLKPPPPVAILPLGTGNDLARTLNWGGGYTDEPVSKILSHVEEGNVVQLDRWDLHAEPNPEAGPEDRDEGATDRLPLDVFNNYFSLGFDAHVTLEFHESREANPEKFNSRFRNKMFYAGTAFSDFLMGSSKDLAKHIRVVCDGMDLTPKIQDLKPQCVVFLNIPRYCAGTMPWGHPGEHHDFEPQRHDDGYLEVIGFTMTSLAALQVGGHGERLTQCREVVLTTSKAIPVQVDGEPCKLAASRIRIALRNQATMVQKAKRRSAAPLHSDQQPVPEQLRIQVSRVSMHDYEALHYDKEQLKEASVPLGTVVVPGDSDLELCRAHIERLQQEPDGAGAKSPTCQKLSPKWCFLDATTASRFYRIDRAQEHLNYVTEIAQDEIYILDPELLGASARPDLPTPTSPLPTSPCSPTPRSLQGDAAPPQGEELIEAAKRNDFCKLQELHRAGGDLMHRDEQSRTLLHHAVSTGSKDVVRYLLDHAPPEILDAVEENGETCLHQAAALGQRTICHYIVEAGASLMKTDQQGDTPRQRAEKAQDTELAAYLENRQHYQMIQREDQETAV

IC50 (DGKζ) [µM]	IC50 (DGKα) [µM]	Structure (SMILES)
≤ 0.02	≤ 0.02	Cc1nc2c(N3C[C@@H](C)N(C(c4ccc(F)c(Cl)c4F)C4CC(F)(F)C4)C[C@@H]3C)nc3nncn3c2n1C[C@@H]1CCCO1 (stereo partly drawn) [Example 57, 4-((2S,5R)-4-((3-Chloro-2,4-difluorophenyl)(3,3-difluorocyclobutyl)methyl)-2,5-dimethylpiperazin-1-yl)-2-methyl-1-(((S)-tetrahydrofuran-2-yl)methyl)-1H-[1,2,4]triazolo[3,4-b]purine]
≤ 0.02	≤ 0.02	Cc1nc2c(N3C[C@@H](C)N([C@@H](c4ccc(Cl)c(Cl)c4)C4CC(F)(F)C4)C[C@@H]3C)nc3nncn3c2n1C[C@@H]1CCCO1 [Example 49, 4-((2S,5R)-4-((R)-(3,4-dichlorophenyl)(3,3-difluorocyclobutyl)methyl)-2,5-dimethylpiperazin-1-yl)-2-methyl-1-(((S)-tetrahydrofuran-2-yl)methyl)-1H-[1,2,4]triazolo[3,4-b]purine]
≤ 0.02	≤ 0.02	Cc1nc2c(N3C[C@@H](C)N(C(c4cc(F)c(F)c(F)c4)C4CC(F)(F)C4)C[C@@H]3C)nc3nncn3c2n1C[C@@H]1CCCO1 (stereo partly drawn) [Example 52, 4-((2S,5R)-4-((3,3-Difluorocyclobutyl)(3,4,5-trifluorophenyl)methyl)-2,5-dimethylpiperazin-1-yl)-2-methyl-1-(((S)-tetrahydrofuran-2-yl)methyl)-1H-[1,2,4]triazolo[3,4-b]purine]
≤ 0.02	≤ 0.02	C[C@@H]1CN(c2nc3nncn3c3c2ncn3C[C@@H]2CCCO2)[C@@H](C)CN1[C@@H](c1ccc(F)cc1)c1ccc(OC(F)(F)F)cn1 [Example 26, 4-((2S,5R)-4-((S)-(4-Fluorophenyl)(5-(trifluoromethoxy)pyridin-2-yl)methyl)-2,5-dimethylpiperazin-1-yl)-1-(((S)-tetrahydrofuran-2-yl)methyl)-1H-[1,2,4]triazolo[3,4-b]purine]
≤ 0.02	≤ 0.02	Cc1nc2c(N3C[C@@H](C)N([C@H](c4ccc(C(F)(F)F)cc4)C(C)C)C[C@@H]3C)nc3nncn3c2n1C[C@@H]1CCCO1 [Example 67, 4-((2S,5R)-2,5-Dimethyl-4-((S)-2-methyl-1-(4-(trifluoromethyl)phenyl)propyl)piperazin-1-yl)-2-methyl-1-(((S)-tetrahydrofuran-2-yl)methyl)-1H-[1,2,4]triazolo[3,4-b]purine]
≤ 0.02	≤ 0.02	C[C@@H]1CN(c2nc3nncn3c3c2ncn3CC2CC2)[C@@H](C)CN1[C@@H](c1ccc(F)cc1)c1ccc(OC(F)(F)F)cn1 [Example 24, 1-(Cyclopropylmethyl)-4-((2S,5R)-4-((S)-(4-fluorophenyl)(5-(trifluoromethoxy)pyridin-2-yl)methyl)-2,5-dimethylpiperazin-1-yl)-1H-[1,2,4]triazolo[3,4-b]purine]
≤ 0.02	≤ 0.02	CC[C@@H]1CN(c2nc3nncn3c3c2nc(C)n3C[C@@H]2CCCO2)[C@@H](C)CN1C(c1ccc(F)cc1)c1ccc(C#N)cc1 (stereo partly drawn) [Example 133, 4-(((2R,5S)-2-Ethyl-5-methyl-4-(2-methyl-1-(((S)-tetrahydrofuran-2-yl)methyl)-1H-[1,2,4]triazolo[3,4-b]purin-4-yl)piperazin-1-yl)(4-fluorophenyl)methyl)benzonitrile]
≤ 0.02	≤ 0.02	COc1cccc([C@H](C(C)C)N2C[C@H](C)N(c3nc4nncn4c4c3nc(C)n4C[C@@H]3CCCO3)C[C@H]2C)c1 [Example 98, 4-((2S,5R)-4-((S)-1-(3-Methoxyphenyl)-2-methylpropyl)-2,5-dimethylpiperazin-1-yl)-2-methyl-1-(((S)-tetrahydrofuran-2-yl)methyl)-1H-[1,2,4]triazolo[3,4-b]purine]
≤ 0.02	≤ 0.02	Cc1nc2c(N3C[C@@H](C)N([C@@H](c4ccc(C(F)F)cc4)C(C)C)C[C@@H]3C)nc3nncn3c2n1C[C@@H]1CCCO1 [Example 74, 4-((2S,5R)-4-((R)-1-(4-(difluoromethyl)phenyl)-2-methylpropyl)-2,5-dimethylpiperazin-1-yl)-2-methyl-1-(((S)-tetrahydrofuran-2-yl)methyl)-1H-[1,2,4]triazolo[3,4-b]purine]
≤ 0.02	≤ 0.02	Cc1nc2c(N3C[C@@H](C)N(C(c4ccc(Cl)cc4)c4ccc(Cl)cc4)C[C@@H]3C)nc3nncn3c2n1C[C@@H]1CCCO1 [Example 105, 4-((2S,5R)-4-(Bis(4-chlorophenyl)methyl)-2,5-dimethylpiperazin-1-yl)-2-methyl-1-(((S)-tetrahydrofuran-2-yl)methyl)-1H-[1,2,4]triazolo[3,4-b]purine]
≤ 0.02	≤ 0.02	Cc1nc2c(N3C[C@@H](C)N(C(c4ccc(Cl)cc4)C4CC(F)(F)C4)C[C@@H]3C)nc3nncn3c2n1C[C@@H]1CCCO1 (stereo partly drawn) [Example 60, 4-((2S,5R)-4-((4-Chlorophenyl)(3,3-difluorocyclobutyl)methyl)-2,5-dimethylpiperazin-1-yl)-2-methyl-1-(((S)-tetrahydrofuran-2-yl)methyl)-1H-[1,2,4]triazolo[3,4-b]purine]
≤ 0.02	≤ 0.02	Cc1nc2c(N3C[C@@H](C)N(C(c4ccc(C(F)(F)F)c(F)c4)C(C)C)C[C@@H]3C)nc3nncn3c2n1C[C@@H]1CCCO1 (stereo partly drawn) [Example 83, 4-((2S,5R)-4-(1-(3-Fluoro-4-(trifluoromethyl)phenyl)-2-methylpropyl)-2,5-dimethylpiperazin-1-yl)-2-methyl-1-(((S)-tetrahydrofuran-2-yl)methyl)-1H-[1,2,4]triazolo[3,4-b]purine]
≤ 0.02	≤ 0.02	CC[C@@H]1CN(c2nc3nncn3c3c2nc(C)n3C[C@@H]2CCCO2)[C@@H](C)CN1[C@H](c1ccc(OC(F)F)cc1)C(C)C [Example 126, 4-((2S,5R)-4-((S)-1-(4-(Difluoromethoxy)phenyl)-2-methylpropyl)-5-ethyl-2-methylpiperazin-1-yl)-2-methyl-1-(((S)-tetrahydrofuran-2-yl)methyl)-1H-[1,2,4]triazolo[3,4-b]purine]
≤ 0.02	≤ 0.02	CC[C@@H]1CN(c2nc3nncn3c3c2nc(C)n3C[C@@H]2CCCO2)[C@@H](C)CN1[C@@H](c1ccc(OC(F)F)cc1)C(C)C [Example 127, 4-((2S,5R)-4-((R)-1-(4-(difluoromethoxy)phenyl)-2-methylpropyl)-5-ethyl-2-methylpiperazin-1-yl)-2-methyl-1-(((S)-tetrahydrofuran-2-yl)methyl)-1H-[1,2,4]triazolo[3,4-b]purine]
≤ 0.02	≤ 0.02	C[C@@H]1CN(c2nc3nncn3c3c2ncn3CC2CC2)[C@@H](C)CN1C(c1ccc(F)cc1)c1ccc(F)cc1 [Example 18, 4-((2S,5R)-4-(Bis(4-fluorophenyl)methyl)-2,5-dimethylpiperazin-1-yl)-1-(cyclopropylmethyl)-1H-[1,2,4]triazolo[3,4-b]purine]
≤ 0.02	≤ 0.02	CC[C@@H]1CN(c2nc3nncn3c3c2nc(C)n3C[C@@H]2CCCO2)[C@@H](C)CN1C(c1ccc(Cl)cc1)c1ccc(Cl)cc1 [Example 41, 4-((2S,5R)-4-(Bis(4-chlorophenyl)methyl)-5-ethyl-2-methylpiperazin-1-yl)-2-methyl-1-(((S)-tetrahydrofuran-2-yl)methyl)-1H-[1,2,4]triazolo[3,4-b]purine]
